Laboratory results as given in patent US6677450B2, “Topoisomerase inhibitors” (Bristol-Myers Squibb Company, priority 2000, dated 2004).
pEC50, pIC50: −log10 of the molar value. Read-outs that look alike come from different tables or passages of the source.

What was measured:
[1] = biological target: T1, purified human topoisomerase I (Homo sapiens, UniProt P11387); assay: Topoisomerase I activity (in vitro): compound-induced, topoisomerase I-mediated single strand breaks in PM2 DNA; format: biochemical; settings: 30 minutes at 37° C., agarose gel densitometry, read-out: EC50 (median effective concentration for inducing topoisomerase I-mediated single strand breaks in DNA)
T1 construct: purchased Topogen
T1 sequence (P11387 1-765): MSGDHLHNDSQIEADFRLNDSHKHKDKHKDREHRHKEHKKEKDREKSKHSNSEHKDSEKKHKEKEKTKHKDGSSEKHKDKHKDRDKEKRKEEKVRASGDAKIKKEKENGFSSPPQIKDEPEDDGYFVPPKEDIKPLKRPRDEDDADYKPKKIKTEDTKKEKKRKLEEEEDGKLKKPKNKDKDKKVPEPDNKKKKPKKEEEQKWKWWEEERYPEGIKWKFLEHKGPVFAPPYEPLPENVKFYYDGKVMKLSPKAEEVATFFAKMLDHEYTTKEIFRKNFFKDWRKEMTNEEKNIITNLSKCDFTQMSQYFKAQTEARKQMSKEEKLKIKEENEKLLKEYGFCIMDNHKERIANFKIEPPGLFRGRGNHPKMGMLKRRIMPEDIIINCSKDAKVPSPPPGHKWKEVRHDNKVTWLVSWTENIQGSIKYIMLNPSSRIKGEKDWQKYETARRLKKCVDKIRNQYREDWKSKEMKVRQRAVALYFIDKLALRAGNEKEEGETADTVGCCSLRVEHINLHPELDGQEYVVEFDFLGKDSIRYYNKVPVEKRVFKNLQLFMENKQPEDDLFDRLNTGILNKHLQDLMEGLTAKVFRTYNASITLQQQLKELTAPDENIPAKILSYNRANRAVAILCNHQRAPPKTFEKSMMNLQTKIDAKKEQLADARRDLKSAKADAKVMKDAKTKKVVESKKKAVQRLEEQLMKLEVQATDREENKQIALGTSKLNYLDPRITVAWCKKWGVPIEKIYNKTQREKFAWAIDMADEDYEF
Method: Topoisomerase I Activity (In Vitro)
Topoisomerase I activity was measured as described below: The procedure for assaying compound-induced, topoisomerase I-mediated single strand breaks in DNA was essentially that described by Hsiang, et al., (J. Biol Chem. 1985, 260, 14873-14878). Samples dissolved in 100% DMSO as either 10 μM or 10 mg/ml solutions, unless otherwise stated, were diluted in Tris-EDTA buffer. Marine bacteriophage PM2 DNA (Boehringer Mannheim) was also diluted in Tris-EDTA buffer to a concentration of 0.02 μg/μl. Different dilutions of the compound being evaluated were mixed with diluted DNA and this mixture was added to 1000 unit (one unit of enzyme activity is defined as the amount capable of relaxing 100 ng of supercoiled DNA in approximately 30 minutes at 37° C.) aliquots of purified human topoisomerase I (Topogen) in 2× reaction buffer to start the reaction. The compound-DNA-enzyme mixture was incubated for 30 minutes at 37° C. before stopping the reaction with warm stop buffer containing sodium dodecyl sulfate and proteinase K (Sigma). These mixtures were allowed to incubate at 37° C. for another 10 minutes, at which time the mixtures were removed from the waterbath and extracted with a 24:1 mixture of chloroform/isoamyl alcohol. Following centrifugation, aliquots of the aqueous phases were placed in wells of a 0.9% agarose (SeaKem) gel in Tris-borate buffer containing 0.5 μg/ml of ethidium bromide and subjected to electrophoresis for 15 hours to separate the different topological isomers and nicked and broken DNAs. After destaining the gel in water, the ethidium bromide stained DNA reaction products were visualized by exposing the gel to UV irradiation. Negatives of the photographs of the irradiated gels were scanned with a densitometer and areas under the peaks were calculated in order to obtain percent single strand DNA break formation for each sample. A median effective concentration (EC50) was obtained for each compound by interpolation between points of the resulting dose-effect curve which defines the potency of the compound for its effect in inducing topoisomerase I-mediated single strand breaks in DNA.
The topoisomerase I activity for certain compounds of the present invention is shown below in Table I.

[2] = test system: murine P388 cell line; assay: In vitro cell-based cytotoxicity: proliferation inhibition, XTT tetrazolium assay; settings: P388 cells, 72 h at 37° C., XTT absorbance at 450 nm, read-out: IC50 (drug concentration required to inhibit cell proliferation to 50% of untreated control cells)
Method: In Vitro Cell-Based Cytotoxicity Activity
The proliferation inhibition activity against murine P388 cell line was measured as follows. Evaluation of a soluble tetrazolium/formazan assay for cell growth and drug sensitivity in culture, using human and other tumor cell lines, was done according to the procedure described in Cancer Res. 1988, 48, 4827-4833. Cells were plated at 4000 cells/well in 96 well microtiter plates and 24 h later drugs were added and serially diluted. The cells were incubated at 37° C. for 72 h, at which time a tetrazolium dye, XTT, containing phenazine methosulfate was added. A dehydrogenase enzyme in live cells reduced the XTT to a form that absorbs light at 450 nm, which could be quantitated spectrophotometrically. The greater the absorbance the greater the number of live cells. The results are expressed as an IC50, which is the drug concentration required to inhibit cell proliferation (i.e., absorbance at 450 nm) to 50% of that of untreated control cells.

Compound: 2,3,9,10-Tetrafluoro-12,13-[1,5-(6-deoxy-β-D-glucopyranosyl)]-6,7,12,13-tetrahydro(5H)indolo[2,3-a]pyrrolo[3,4-c]carbazole-5-one and 2,3,9,10-Tetrafluoro-12,13-[1,5-(6-deoxy-β-D-glucopyranosyl)]-6,7,12,13-tetrahydro(5H)-indolo[2,3-a]pyrrolo[3,4-c]carbazole-7-one [Example 23]
- pEC50 [1]: 5.68
- pIC50 [2]: 6.62

Compound: O=C1NC(=O)c2c1c1c3cc(F)c(F)cc3n3c1c1c2c2cc(F)c(F)cc2n1C1OC(C3)C(O)C(O)C1O [Example 3, 2,3,9,10-Tetrafluoro-12,13-(1,6-β-D-glucopyranosyl)-6,7,12,13-tetrahydro(5H)indolo[2,3-a]pyrrolo[3,4-c]carbazole-5,7-dione]
- pEC50 [1]: 6.46
- pIC50 ([2]; Mus musculus): 7.30

Compound: O=C1NC(=O)c2c1c1c3cc(F)c(F)cc3n3c1c1c2c2cc(F)c(F)cc2n1C1OC(CC(O)C1O)C3 [Example 4, 2,3,9,10-Tetrafluoro-12,13-[1,6-(4-deoxy-β-D-glucopyranosyl)]-6,7,12,13-tetrahydro(5H)indolo[2,3-a]pyrrolo[3,4-c]carbazole-5,7-dione]
- pEC50 [1]: 5.25
- pIC50 ([2]; Mus musculus): 7.15

Compound: O=C1NC(=O)c2c1c1c3cc(F)c(F)cc3n3c1c1c2c2cc(F)c(F)cc2n1C1OC(C3)C(O)CC1O [Example 5, 2,3,9,10-Tetrafluoro-12,13-[1,6-(3-deoxy-β-D-glucopyranosyl)]-6,7,12,13-tetrahydro(5H)indolo[2,3-a]pyrrolo[3,4-c]carbazole-5,7-dione]
- pEC50 [1]: 6.17
- pIC50 ([2]; Mus musculus): 7.64

Compound: O=C1NC(=O)c2c1c1c3cc(F)c(F)cc3n3c1c1c2c2cc(F)c(F)cc2n1C1OC(C3)C(O)C(F)C1O [Example 6, 2,3,9,10-Tetrafluoro-12,13-[1,6-(3-deoxy-3-fluoro-β-D-glucopyranosyl)]-6,7,12,13-tetrahydro(5H)indolo[2,3-a]pyrrolo[3,4-c]carbazole-5,7-dione]
- pEC50 [1]: < 4.00
- pIC50 ([2]; Mus musculus): 5.11

Compound: COC1C2Cn3c4c(Cl)cccc4c4c5c(c6c7cccc(Cl)c7n(c6c43)C(O2)C(O)C1O)C(=O)NC5=O [Example 7, 1,11-Dichloro-12,13-[1,6-(4-O-methyl-β-D-glucopyranosyl)]-6,7,12,13-tetrahydro(5H)indolo[2,3-a]pyrrolo[3,4-c]carbazole-5,7-dione]
- pEC50 [1]: < 4.00
- pIC50 ([2]; Mus musculus): 6.34

Compound: O=C1NC(=O)c2c1c1c3cc(F)c(F)cc3n3c1c1c2c2cc(F)c(F)cc2n1C1OC(C3)C(F)C(O)C1O [Example 8, 2,3,9,10-Tetrafluoro-12,13-[1,6-(4-deoxy-4-fluoro-β-D-glucopyranosyl)]-6,7,12,13-tetrahydro(5H)indolo[2,3-a]pyrrolo[3,4-c]carbazole-5,7-dione]
- pEC50 [1]: 6.21
- pIC50 ([2]; Mus musculus): 7.59

Compound: O=C1NC(=O)c2c1c1c3cc(F)c(F)cc3n3c1c1c2c2cc(F)c(F)cc2n1C1OC(C3)C(F)(F)C(O)C1O [Example 9, 2,3,9,10-Tetrafluoro-12,13-[1,6-(4-deoxy-4,4-difluoro-β-D-glucopyranosyl)]-6,7,12,13-tetrahydro(5H)indolo[2,3-a]pyrrolo[3,4-c]carbazole-5,7-dione]
- pEC50 [1]: < 4.00
- pIC50 ([2]; Mus musculus): 7.68

Compound: O=C1NC(=O)c2c1c1c3ccc(F)cc3n3c1c1c2c2ccc(F)cc2n1C1OC(C3)C(O)C(O)C1O [Example 10, 2,10-Difluoro-12,13-[1,6-β-D-glucopyranosyl]-6,7,12,13-tetrahydro(5H)indolo-[2,3-a]pyrrolo[3,4-c]carbazole-5,7-dione]
- pEC50 [1]: 6.35
- pIC50 ([2]; Mus musculus): 6.89
- melting point: > 300 °C

Compound: O=C1NC(=O)c2c1c1c3ccc(F)cc3n3c1c1c2c2ccc(F)cc2n1C1OC(C3)C(F)C(O)C1O [Example 11, 2,10-Difluoro-12,13-[1,6-(4-deoxy-4-fluoro-β-D-glucopyranosyl)]-6,7,12,13-tetrahydro(5H)indolo[2,3-a]pyrrolo[3,4-c]carbazole-5,7-dione]
- pEC50 [1]: 5.48
- pIC50 ([2]; Mus musculus): 7.68
- melting point: 315 °C (dec.)

Compound: O=C1NC(=O)c2c1c1c3cc(F)c(F)cc3n3c1c1c2c2cc(F)c(F)cc2n1[C@@H]1OC(CO)[C@H]3C(O)C1O (stereo partly drawn) [Example 13, 2,3,9,10-Tetrafluoro-12,13-(1,4-β-D-galactopyranosyl)-6,7,12,13-tetrahydro(5H)indolo[2,3-a]pyrrolo[3,4-c]carbazole-5,7-dione]
- pEC50 [1]: 5.09
- pIC50 ([2]; Mus musculus): 5.55

Compound: O=C1NC(=O)c2c1c1c3cc(F)c(F)cc3n3c1c1c2c2cc(F)c(F)cc2n1[C@@H]1OC(CF)[C@H]3C(O)C1O (stereo partly drawn) [Example 16, 2,3,9,10-Tetrafluoro-12,13-[1,4-(6-deoxy-6-fluoro-β-D-galactopyranosyl)]-6,7,12,13-tetrahydro(5H)indolo[2,3-a]pyrrolo[3,4-c]carbazole-5,7-dione]
- pEC50 [1]: 5.54
- pIC50 ([2]; Mus musculus): 5.48

Compound: C[C@]12O[C@H]([C@H](O)[C@@H](O)[C@@H]1O)n1c3cc(F)c(F)cc3c3c4c(c5c6cc(F)c(F)cc6n2c5c31)C(=O)NC4=O [Example 21]
- pEC50 [1]: 6.54
- pIC50 ([2]; Mus musculus): 6.85

Compound: O=C1NC(=O)c2c1c1c3cc(F)c(F)cc3n3c1c1c2c2cc(F)c(F)cc2n1[C@@]1(CO)O[C@@H]3[C@H](O)[C@@H](O)[C@@H]1O [Example 22, 2,3,9,10-Tetrafluoro-12,13-(1,5-β-D-glucopyranosyl)-6,7,12,13-tetrahydro(5H)indolo[2,3-a]pyrrolo[3,4-c]carbazole-5,7-dione]
- pEC50 [1]: 6.49
- pIC50 ([2]; Mus musculus): 7.07

Compound: O=C1NC(=O)c2c1c1c3cc(F)ccc3n3c1c1c2c2cc(F)ccc2n1[C@@H]1O[C@H](CO)[C@H](O)[C@H](O)[C@@H]13 [Example 25, 3,9-Difluoro-12,13-[1,2-β-D-galactopyranosyl]-6,7,12,13-tetrahydro(5H)-indolo-[2,3-a]pyrrolo[3,4-c]carbazole-5,7-dione]
- pEC50 [1]: 6.96
- pIC50 ([2]; Mus musculus): 7.85

Compound: O=C1NC(=O)c2c1c1c3cc(F)ccc3n3c1c1c2c2cc(F)ccc2n1C1OC(C3)C(F)C(O)C1O [Example 26, 3,9-Difluoro-12,13-[1,6-(4-deoxy-4-fluoro-β-D-glucopyranosyl)]-6,7,12,13-tetrahydro(5H)indolo[2,3-a]pyrrolo[3,4-c]carbazole-5,7-dione]
- pEC50 [1]: 7.55
- pIC50 ([2]; Mus musculus): 8.52

Compound: O=C1NC(=O)c2c1c1c3cc(F)ccc3n3c1c1c2c2cc(F)ccc2n1C1OC(C3)C(O)C(O)C1O (centres unmarked) [Example 27]
- pEC50 [1]: 7.44
- pIC50 ([2]; Mus musculus): 7.29

Compound: O=C1NC(=O)c2c1c1c3cc(F)ccc3n3c1c1c2c2cc(F)ccc2n1[C@@H]1O[C@H](CO)[C@@H](O)[C@H](O)[C@@H]13 [Example 28, 3,9-Difluoro-12,13-[1,2-β-D-glucopyranosyl]-6,7,12,13-tetrahydro(5H)-indolo-[2,3-a]pyrrolo[3,4-c]carbazole-5,7-dione]
- pEC50 [1]: 6.92
- pIC50 ([2]; Mus musculus): 6.46
